Assay results as given in patent publication US9066905B2, “Synthetic peptides and methods of use for autoimmune disease therapies” (President and Fellows of Harvard College, priority 1998, dated 2015).
Where two headings read alike, the source gives them in different places. Residues, ends and D or L forms follow the SMILES beside them.

Legend:
[1] = target: HLA-DR4 (DRB1*0401) molecules (Homo sapiens, UniProt P01903+P01911, A100K/A169T/F76Y/I96L/K127E/L162R/M171V/N62H/P40V/Q125Y/R42H/S133A/S149N/S66Y/V115G/V209L/W38E); assay: Competitive binding assay with recombinant water-soluble HLA-DR4
[2] = target: HLA-DR1 (DRB1*0101) molecules (Homo sapiens, UniProt P01903+P01911, A100R/D57E/F55L/F60I/F76Y/I96L/L162R/M171V/P40L/Q125E/R42F/V115G/Y59C); assay: Competitive binding assay with recombinant water-soluble HLA-DR1
[3] = Affinity for HLA-DR4 (DRB1*0401) molecules determined by competition with biotinylated competitor HA 306-318, biotinylated competitor HA306-318
[4] = biotinylated competitor YEAK, read-out: Affinity for HLA-DR4 (DRB1*0401) molecules determined by competition with biotinylated competitor YEAK
[5] = Affinity for HLA-DR1 (DRB1*0101) molecules determined by competition with biotinylated competitor HA 306-318, biotinylated competitor HA306-318
[6] = biotinylated competitor YEAK, read-out: Affinity for HLA-DR1 (DRB1*0101) molecules determined by competition with biotinylated competitor YEAK

SMILES	IC50 [1, 3] [µM]	IC50 [1, 4] [µM]	IC50 [2, 5] [µM]	IC50 [2, 6] [µM]
CC(C)C[C@H](NC(=O)[C@H](CCCCN)NC(=O)[C@H](CC(C)C)NC(=O)[C@@H](NC(=O)[C@H](CC(N)=O)NC(=O)[C@H](CCC(N)=O)NC(=O)[C@H](CCCCN)NC(=O)[C@@H](NC(=O)[C@H](Cc1ccc(O)cc1)NC(=O)[C@H](CCCCN)NC(=O)[C@@H]1CCCN1C(=O)[C@H](C)N)C(C)C)[C@@H](C)O)C(=O)N[C@@H](C)C(=O)N[C@H](C(=O)N[C@@H](C)C(=O)O)[C@@H](C)O [compound 4]	26	8.2	13	3.3
C[C@H](N)C(=O)N[C@@H](C)C(=O)N[C@@H](C)C(=O)N[C@@H](Cc1ccc(O)cc1)C(=O)N[C@@H](C)C(=O)N[C@@H](C)C(=O)N[C@@H](C)C(=O)N[C@@H](C)C(=O)N[C@@H](C)C(=O)N[C@@H](C)C(=O)N[C@@H](CCCCN)C(=O)N[C@@H](C)C(=O)N[C@@H](C)C(=O)N[C@@H](C)C(=O)N[C@@H](C)C(=O)O [compound 5] (H-AAAYAAAAAAKAAAA-OH)	7	–	–	–
C[C@H](N)C(=O)N[C@@H](CCCCN)C(=O)N[C@@H](CCC(=O)O)C(=O)N[C@@H](Cc1ccc(O)cc1)C(=O)N[C@@H](C)C(=O)N[C@@H](C)C(=O)N[C@@H](C)C(=O)N[C@@H](C)C(=O)N[C@@H](C)C(=O)N[C@@H](C)C(=O)N[C@@H](CCCCN)C(=O)N[C@@H](C)C(=O)N[C@@H](C)C(=O)N[C@@H](C)C(=O)N[C@@H](C)C(=O)O [compound 7] (H-AKEYAAAAAAKAAAA-OH)	4.5	–	19	–
C[C@H](N)C(=O)N[C@@H](CCC(=O)O)C(=O)N[C@@H](CCC(=O)O)C(=O)N[C@@H](Cc1ccc(O)cc1)C(=O)N[C@@H](C)C(=O)N[C@@H](C)C(=O)N[C@@H](C)C(=O)N[C@@H](C)C(=O)N[C@@H](C)C(=O)N[C@@H](C)C(=O)N[C@@H](CCCCN)C(=O)N[C@@H](C)C(=O)N[C@@H](C)C(=O)N[C@@H](C)C(=O)N[C@@H](C)C(=O)O [compound 11]	2	–	–	–
C[C@H](N)C(=O)N[C@@H](C)C(=O)N[C@@H](CCC(=O)O)C(=O)N[C@@H](Cc1ccc(O)cc1)C(=O)N[C@@H](C)C(=O)N[C@@H](C)C(=O)N[C@@H](C)C(=O)N[C@@H](C)C(=O)N[C@@H](C)C(=O)N[C@@H](C)C(=O)N[C@@H](CCCCN)C(=O)N[C@@H](C)C(=O)N[C@@H](C)C(=O)N[C@@H](C)C(=O)N[C@@H](C)C(=O)O [compound 12]	3.2	–	47	–
C[C@H](NC(=O)[C@H](C)NC(=O)[C@H](C)NC(=O)[C@H](C)NC(=O)[C@H](CCCCN)NC(=O)[C@H](C)NC(=O)[C@H](C)NC(=O)[C@H](C)NC(=O)[C@H](C)NC(=O)[C@H](C)NC(=O)[C@H](C)NC(=O)[C@H](Cc1ccc(O)cc1)NC(=O)[C@H](C)NC(=O)[C@H](CCCCN)NC(=O)[C@@H](N)CCC(=O)O)C(=O)O [compound 13] (H-EKAYAAAAAAKAAAA-OH)	3.3	–	–	–
C[C@H](N)C(=O)N[C@@H](C)C(=O)N[C@@H](CCCCN)C(=O)N[C@@H](Cc1ccc(O)cc1)C(=O)N[C@@H](CCC(=O)O)C(=O)N[C@@H](C)C(=O)N[C@@H](C)C(=O)N[C@@H](C)C(=O)N[C@@H](C)C(=O)N[C@@H](C)C(=O)N[C@@H](CCCCN)C(=O)N[C@@H](C)C(=O)N[C@@H](C)C(=O)N[C@@H](C)C(=O)N[C@@H](C)C(=O)O [compound 14] (H-AAKYEAAAAAKAAAA-OH)	4	–	–	–
C[C@H](N)C(=O)N[C@@H](C)C(=O)N[C@@H](CCCCN)C(=O)N[C@@H](Cc1ccc(O)cc1)C(=O)N[C@@H](C)C(=O)N[C@@H](CCC(=O)O)C(=O)N[C@@H](C)C(=O)N[C@@H](C)C(=O)N[C@@H](C)C(=O)N[C@@H](C)C(=O)N[C@@H](CCCCN)C(=O)N[C@@H](C)C(=O)N[C@@H](C)C(=O)N[C@@H](C)C(=O)N[C@@H](C)C(=O)O [compound 15] (H-AAKYAEAAAAKAAAA-OH)	1.8	< 1	42	16
C[C@H](NC(=O)[C@H](C)NC(=O)[C@H](C)NC(=O)[C@H](C)NC(=O)[C@H](CCCCN)NC(=O)[C@H](C)NC(=O)[C@H](C)NC(=O)[C@H](C)NC(=O)[C@H](C)NC(=O)[C@H](C)NC(=O)[C@H](C)NC(=O)[C@H](Cc1ccc(O)cc1)NC(=O)[C@H](C)NC(=O)[C@H](C)NC(=O)[C@@H](N)CCC(=O)O)C(=O)O [compound 16] (H-EAAYAAAAAAKAAAA-OH)	5	–	–	–
C[C@H](NC(=O)[C@H](C)NC(=O)[C@H](C)NC(=O)[C@H](C)NC(=O)[C@H](CCCCN)NC(=O)[C@H](C)NC(=O)[C@H](C)NC(=O)[C@H](C)NC(=O)[C@H](C)NC(=O)[C@H](C)NC(=O)[C@H](C)NC(=O)[C@H](Cc1ccc(O)cc1)NC(=O)[C@H](CCCCN)NC(=O)[C@H](CCCCN)NC(=O)[C@@H](N)CCC(=O)O)C(=O)O [compound 17] (H-EKKYAAAAAAKAAAA-OH)	1.8	–	–	–
C[C@H](NC(=O)[C@H](C)NC(=O)[C@H](C)NC(=O)[C@H](C)NC(=O)[C@H](CCCCN)NC(=O)[C@H](C)NC(=O)[C@H](C)NC(=O)[C@H](C)NC(=O)[C@H](C)NC(=O)[C@H](C)NC(=O)[C@H](C)NC(=O)[C@H](Cc1ccc(O)cc1)NC(=O)[C@H](CCCCN)NC(=O)[C@H](C)NC(=O)[C@@H](N)CCC(=O)O)C(=O)O [compound 18] (H-EAKYAAAAAAKAAAA-OH)	4.4	3	33	–
C[C@H](N)C(=O)N[C@@H](CCCCN)C(=O)N[C@@H](CCCCN)C(=O)N[C@@H](Cc1ccc(O)cc1)C(=O)N[C@@H](CCC(=O)O)C(=O)N[C@@H](C)C(=O)N[C@@H](C)C(=O)N[C@@H](C)C(=O)N[C@@H](C)C(=O)N[C@@H](C)C(=O)N[C@@H](C)C(=O)N[C@@H](C)C(=O)N[C@@H](C)C(=O)N[C@@H](C)C(=O)N[C@@H](C)C(=O)O [compound 21]	2.2	–	–	–
C[C@H](N)C(=O)N[C@@H](C)C(=O)N[C@@H](CCC(=O)O)C(=O)N[C@@H](Cc1ccc(O)cc1)C(=O)N[C@@H](CCCCN)C(=O)N[C@@H](C)C(=O)N[C@@H](C)C(=O)N[C@@H](C)C(=O)N[C@@H](C)C(=O)N[C@@H](C)C(=O)N[C@@H](C)C(=O)N[C@@H](C)C(=O)N[C@@H](C)C(=O)N[C@@H](C)C(=O)N[C@@H](C)C(=O)O [compound 26]	1.8	–	–	–
C[C@H](N)C(=O)N[C@@H](CCC(=O)O)C(=O)N[C@@H](Cc1ccc(O)cc1)C(=O)N[C@@H](C)C(=O)N[C@@H](CCCCN)C(=O)N[C@@H](C)C(=O)N[C@@H](C)C(=O)N[C@@H](C)C(=O)N[C@@H](C)C(=O)N[C@@H](C)C(=O)N[C@@H](C)C(=O)N[C@@H](C)C(=O)N[C@@H](C)C(=O)N[C@@H](C)C(=O)N[C@@H](C)C(=O)O [compound 32]	3	–	–	–
C[C@H](N)C(=O)N[C@@H](CCC(=O)O)C(=O)N[C@@H](CCCCN)C(=O)N[C@@H](C)C(=O)N[C@@H](Cc1ccc(O)cc1)C(=O)N[C@@H](C)C(=O)N[C@@H](C)C(=O)N[C@@H](C)C(=O)N[C@@H](C)C(=O)N[C@@H](C)C(=O)N[C@@H](C)C(=O)N[C@@H](C)C(=O)N[C@@H](C)C(=O)N[C@@H](C)C(=O)N[C@@H](C)C(=O)O [compound 33]	< 1	–	–	–
C[C@H](N)C(=O)N[C@@H](Cc1ccc(O)cc1)C(=O)N[C@@H](CCCCN)C(=O)N[C@@H](C)C(=O)N[C@@H](CCC(=O)O)C(=O)N[C@@H](C)C(=O)N[C@@H](C)C(=O)N[C@@H](C)C(=O)N[C@@H](C)C(=O)N[C@@H](C)C(=O)N[C@@H](C)C(=O)N[C@@H](C)C(=O)N[C@@H](C)C(=O)N[C@@H](C)C(=O)N[C@@H](C)C(=O)O [compound 35]	1.3	–	–	–
C[C@H](N)C(=O)N[C@@H](CCCCN)C(=O)N[C@@H](Cc1ccc(O)cc1)C(=O)N[C@@H](C)C(=O)N[C@@H](CCC(=O)O)C(=O)N[C@@H](C)C(=O)N[C@@H](C)C(=O)N[C@@H](C)C(=O)N[C@@H](C)C(=O)N[C@@H](C)C(=O)N[C@@H](C)C(=O)N[C@@H](C)C(=O)N[C@@H](C)C(=O)N[C@@H](C)C(=O)N[C@@H](C)C(=O)O [compound 36]	3	–	–	–
